Results on 10 compounds are retold here after patent publication US9592221B2, “Antibacterial agents: aryl myxopyronin derivatives” (priority 2012, dated 2017).

In test [1] the test system is Bacillus anthracis Vollum 1b. Kind of test: microbe, parasite or virus in culture. Format: cell-based. To be noted: Bacillus anthracis, VOLLUM1B, read-out: MIC B. anthracis Vollum-1b.
Test [2] concerns Mycobacterium tuberculosis H37Rv. Kind of test: MIC, microplate Alamar Blue assay, M. tuberculosis. Format: cell-based.
Another test deals with Brucella melitensis 16M. Kind of test: microbe, parasite or virus in culture. To be noted: Brucella melitensis, 16M, read-out: MIC B. melitensis 16M. The class given is cell-based.
Test [3] deals with Francisella tularensis SCHU4. Kind of test: microbe, parasite or virus in culture. The class given is cell-based. To be noted: Francisella tularensis, SCHU4, read-out: MIC F. tularensis SCHU4.
The test system of the next test is Yersinia pestis C092. Kind of test: microbe, parasite or virus in culture. The following applies: Yersinia pestis, C092, read-out: MIC Y. pestis C092. The class given is cell-based.
The subject of test [4] is Escherichia coli D21f2tolC. Kind of test: MIC, spiral gradient endpoint assay, E. coli D21f2tolC. To be noted: Escherichia coli, D21F2TOLC, read-out: MIC E. coli D21f2toIC. Format: cell-based.
For test [5], the target named is M. tuberculosis RNA polymerase core enzyme, M. tuberculosis σ^A (Mycobacterium tuberculosis, UniProt P9WGY7+P9WGY9). Kind of test: Fluorescence-detected RNA polymerase assay, M. tuberculosis RNA polymerase. The class given is biochemical. The following applies: read-out: IC50 M. tuberculosis RNAP.
The test system of test [6] is Burkholderia pseudomallei Human/Blood/OH/US/1994. Kind of test: microbe, parasite or virus in culture. The class given is cell-based. The following applies: Burkholderia pseudomallei, read-out: MIC B. pseudomallei Human/Blood/OH.
Test [7] deals with S. aureus RNA polymerase core enzyme, S. aureus σ^A (Staphylococcus aureus, UniProt P47768+Q2G0N5). Kind of test: Fluorescence-detected RNA polymerase assay, S. aureus RNA polymerase. The class given is biochemical. To be noted: read-out: IC50 S. aureus RNAP.
Test [8] concerns the target E. coli RNA polymerase σ^70 holoenzyme (Escherichia coli, UniProt P0A8T7+P0A8V2). Kind of test: Fluorescence-detected RNA polymerase assay, E. coli RNA polymerase. The class given is biochemical. To be noted: read-out: IC50 E. coli RNAP.
In test [9] the test system is Acinetobacter baumannii ATCC 19606. Kind of test: MIC, spiral gradient endpoint assay, A. baumannii. The class given is cell-based. The following applies: ATCC19606; Acinetobacter baumannii ATCC 19606.
The test system of test [10] is Staphylococcus aureus ATCC 12600. Kind of test: MIC, spiral gradient endpoint assay, S. aureus ATCC 12600. The class given is cell-based. The following applies: ATCC12600; Staphylococcus aureus ATCC 12600.
Another test deals with Burkholderia mallei CHN7. Kind of test: microbe, parasite or virus in culture. The class given is cell-based. The following applies: Burkholderia mallei, CHN7, read-out: MIC B. mallei CHN7.
The subject of test [11] is methicillin-resistant Staphylococcus aureus (MRSA) strain BAA-1717 (USA-300). Kind of test: MIC, spiral gradient endpoint assay, MRSA BAA-1717. The class given is cell-based. To be noted: Staphylococcus aureus; read-out: MIC S. aureus MRSA BAA-1717.
For test [12], the system named is methicillin-resistant Staphylococcus aureus (MRSA) strain BAA-1707 (USA-400; MW2). Kind of test: MIC, spiral gradient endpoint assay, MRSA BAA-1707. To be noted: Staphylococcus aureus; read-out: MIC S. aureus MRSA BAA-1707. The class given is cell-based.
In test [13] the test system is rifampin-resistant Staphylococcus aureus (RRSA) strain ATCC 12600-Rif (H526N). Kind of test: MIC, spiral gradient endpoint assay, RRSA 12600-Rif. The class given is cell-based. The following applies: Staphylococcus aureus, ATCC12600; read-out: MIC S. aureus RRSA 12600-Rif.

Chain of S. aureus RNA polymerase core enzyme, S. aureus σ^A (Q2G0N5 whole entry): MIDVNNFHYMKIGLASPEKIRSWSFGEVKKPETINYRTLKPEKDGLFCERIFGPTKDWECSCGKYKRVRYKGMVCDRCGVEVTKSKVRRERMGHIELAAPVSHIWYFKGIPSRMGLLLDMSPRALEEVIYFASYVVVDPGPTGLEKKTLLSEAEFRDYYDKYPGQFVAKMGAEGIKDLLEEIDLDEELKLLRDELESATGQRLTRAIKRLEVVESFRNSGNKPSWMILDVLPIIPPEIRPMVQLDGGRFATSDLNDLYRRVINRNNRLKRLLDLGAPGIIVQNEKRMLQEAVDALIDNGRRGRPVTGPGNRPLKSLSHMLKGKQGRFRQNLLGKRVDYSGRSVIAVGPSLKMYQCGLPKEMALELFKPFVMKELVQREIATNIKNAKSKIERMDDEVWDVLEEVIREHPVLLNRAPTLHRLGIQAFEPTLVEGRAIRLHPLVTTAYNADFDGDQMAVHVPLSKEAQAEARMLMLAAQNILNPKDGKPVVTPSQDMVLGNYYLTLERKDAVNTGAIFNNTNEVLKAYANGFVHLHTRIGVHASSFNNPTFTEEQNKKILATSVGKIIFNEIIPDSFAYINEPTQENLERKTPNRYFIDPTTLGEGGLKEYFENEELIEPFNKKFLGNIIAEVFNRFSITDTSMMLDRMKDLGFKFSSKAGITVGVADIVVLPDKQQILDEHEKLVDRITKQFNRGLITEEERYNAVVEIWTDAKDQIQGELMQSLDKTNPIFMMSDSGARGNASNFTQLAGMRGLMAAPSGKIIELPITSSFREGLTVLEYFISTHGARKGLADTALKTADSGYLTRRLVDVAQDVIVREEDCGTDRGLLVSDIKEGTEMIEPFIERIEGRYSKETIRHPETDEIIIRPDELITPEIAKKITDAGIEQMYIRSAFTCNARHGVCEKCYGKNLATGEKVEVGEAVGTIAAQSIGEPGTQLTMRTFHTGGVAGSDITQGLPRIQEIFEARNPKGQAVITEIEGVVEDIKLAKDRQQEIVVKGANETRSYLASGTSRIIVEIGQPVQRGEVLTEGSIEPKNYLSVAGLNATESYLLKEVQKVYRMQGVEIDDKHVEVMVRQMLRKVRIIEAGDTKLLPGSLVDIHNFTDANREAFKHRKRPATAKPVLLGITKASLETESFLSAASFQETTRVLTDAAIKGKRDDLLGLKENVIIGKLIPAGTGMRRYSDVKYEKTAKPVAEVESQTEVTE
Chain of S. aureus RNA polymerase core enzyme, S. aureus σ^A (Q2FW32 whole entry, further chain): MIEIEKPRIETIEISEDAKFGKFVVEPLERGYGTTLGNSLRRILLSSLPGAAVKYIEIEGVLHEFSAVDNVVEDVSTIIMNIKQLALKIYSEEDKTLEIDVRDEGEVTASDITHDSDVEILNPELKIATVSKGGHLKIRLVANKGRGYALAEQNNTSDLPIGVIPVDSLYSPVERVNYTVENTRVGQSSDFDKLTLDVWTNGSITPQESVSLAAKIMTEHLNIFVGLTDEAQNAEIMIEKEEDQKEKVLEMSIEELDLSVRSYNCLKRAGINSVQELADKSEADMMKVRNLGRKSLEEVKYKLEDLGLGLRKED
Chain of S. aureus RNA polymerase core enzyme, S. aureus σ^A (P0A0J0 whole entry, further chain): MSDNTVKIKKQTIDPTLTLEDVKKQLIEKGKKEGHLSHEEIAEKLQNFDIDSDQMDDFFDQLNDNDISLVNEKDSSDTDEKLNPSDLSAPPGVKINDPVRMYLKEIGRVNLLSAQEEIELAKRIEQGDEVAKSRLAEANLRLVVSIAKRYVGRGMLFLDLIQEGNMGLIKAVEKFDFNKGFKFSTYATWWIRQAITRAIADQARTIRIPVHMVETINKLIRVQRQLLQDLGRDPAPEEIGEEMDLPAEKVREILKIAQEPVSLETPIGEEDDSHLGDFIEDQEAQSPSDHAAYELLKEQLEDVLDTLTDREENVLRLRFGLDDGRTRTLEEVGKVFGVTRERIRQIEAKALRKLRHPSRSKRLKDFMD
Chain of S. aureus RNA polymerase core enzyme, S. aureus σ^A (P47768 whole entry): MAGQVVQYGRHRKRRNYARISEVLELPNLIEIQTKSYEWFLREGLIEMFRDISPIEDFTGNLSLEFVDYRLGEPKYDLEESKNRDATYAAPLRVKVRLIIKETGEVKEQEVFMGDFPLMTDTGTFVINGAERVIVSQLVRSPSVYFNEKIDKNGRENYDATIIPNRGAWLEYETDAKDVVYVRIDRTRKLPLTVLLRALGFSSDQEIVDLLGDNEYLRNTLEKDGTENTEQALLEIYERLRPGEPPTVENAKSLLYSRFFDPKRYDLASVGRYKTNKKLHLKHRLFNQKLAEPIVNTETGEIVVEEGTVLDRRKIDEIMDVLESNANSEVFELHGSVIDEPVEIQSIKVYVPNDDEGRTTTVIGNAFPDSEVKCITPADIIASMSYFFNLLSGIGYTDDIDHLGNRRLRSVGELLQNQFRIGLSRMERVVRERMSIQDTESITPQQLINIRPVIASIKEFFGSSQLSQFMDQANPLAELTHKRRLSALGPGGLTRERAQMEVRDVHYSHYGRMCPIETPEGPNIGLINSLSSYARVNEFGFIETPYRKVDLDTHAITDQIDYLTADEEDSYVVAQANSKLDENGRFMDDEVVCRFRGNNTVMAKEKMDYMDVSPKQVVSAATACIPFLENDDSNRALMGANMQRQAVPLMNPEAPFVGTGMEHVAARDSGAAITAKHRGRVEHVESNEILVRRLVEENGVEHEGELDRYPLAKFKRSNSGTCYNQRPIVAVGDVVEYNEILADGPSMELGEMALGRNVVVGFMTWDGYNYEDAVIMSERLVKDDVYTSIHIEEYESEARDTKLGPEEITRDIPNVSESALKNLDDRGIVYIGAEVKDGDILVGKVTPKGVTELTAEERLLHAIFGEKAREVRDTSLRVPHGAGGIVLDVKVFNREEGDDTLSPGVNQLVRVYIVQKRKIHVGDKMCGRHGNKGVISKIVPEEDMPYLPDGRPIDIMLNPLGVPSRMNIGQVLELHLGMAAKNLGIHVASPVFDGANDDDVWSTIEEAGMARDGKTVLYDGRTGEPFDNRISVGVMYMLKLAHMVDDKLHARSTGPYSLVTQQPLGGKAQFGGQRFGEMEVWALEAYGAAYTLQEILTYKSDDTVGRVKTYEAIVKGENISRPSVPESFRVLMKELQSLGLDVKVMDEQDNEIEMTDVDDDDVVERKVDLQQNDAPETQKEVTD

By IC50 is commonly meant the midpoint of a concentration-inhibition curve. As for `CCCCc1ccc2sc(C=C(C)C(=O)c3c(O)cc(C(C)CC/C=C/NC(=O)OC)oc3=O)cc2c1` (mixture of isomers) [APY26, methyl (E)-5-(3-((E/Z)-3-(5-butylbenzo[b]thiophen-2-yl)-2-methylacryloyl)-4-hydroxy-2-oxo-2H-pyran-6-yl)hex-1-enylcarbamate], the MIC in test [1] was 2 µg/mL; in test [2] it was 6 µg/mL; in the test with Brucella melitensis 16M, 2 µg/mL; in test [3] it was 2 µg/mL; in the test on Yersinia pestis C092, greater than 50 µg/mL; in [4], 0.3 µg/mL. Further, the MIC was greater than 50 µg/mL in test [6], greater than 40 µg/mL in test [9], greater than 40 µg/mL in test [10] and 6 µg/mL with Burkholderia mallei CHN7. The 50% inhibitory concentration (IC50) in test [5] was determined as 1000 nM; in [7], 200 nM; in [8] it was 20 nM.

In the case of `CCCCCCc1csc(C=C(C)C(=O)c2c(O)cc(C(C)CC/C=C/NC(=O)OC)oc2=O)c1C` (mixture of isomers) [APY27, methyl (E)-5-(3-((E/Z)-3-(4-hexyl-3-methylthiophen-2-yl)-2-methylacryloyl)-4-hydroxy-2-oxo-2H-pyran-6-yl)hex-1-enylcarbamate], the MIC in test [1] was 3 µg/mL; in [2] it was 10 µg/mL; with Brucella melitensis 16M, 2 µg/mL; in [3] it was 3 µg/mL; in the test with Yersinia pestis C092 it was greater than 50 µg/mL; in test [4] it was 0.3 µg/mL. The MIC turned out to be 50 µg/mL in [6], 20 µg/mL in test [9], 6 µg/mL in test [10] and 6 µg/mL in the test on Burkholderia mallei CHN7. Moreover, the values for the IC50 in [5], in [7] and in [8] were 1000 nM, 100 nM and 10 nM, respectively.

Regarding `C=CCCc1ccc(C=C(C)C(=O)c2c(O)cc(C(C)CC/C=C/NC(=O)OC)oc2=O)s1` (mixture of isomers) [APY28, methyl (E)-5-(3-((E/Z)-3-(5-(but-3-enyl)thiophen-2-yl)-2-methylacryloyl)-4-hydroxy-2-oxo-2H-pyran-6-yl)hex-1-enylcarbamate], the MIC in test [1] was found to be 6 µg/mL; in test [2], 6 µg/mL; with Brucella melitensis 16M it was 0.4 µg/mL; in test [3], 30 µg/mL; with Yersinia pestis C092, 30 µg/mL; in test [4], 0.3 µg/mL. Moreover, the MIC in test [6] was 30 µg/mL; in test [9] it was 30 µg/mL; in test [10], 2 µg/mL; with Burkholderia mallei CHN7, 10 µg/mL. The IC50 amounted to 200 nM in [5], 60 nM in test [7] and 40 nM in [8].

Consider `C=CCCCCc1ccc(C=C(C)C(=O)c2c(O)cc(C(C)CC/C=C/NC(=O)OC)oc2=O)s1` (mixture of isomers) [APY29, methyl (E)-5-(3-((E/Z)-3-(5-(hex-5-enyl)thiophen-2-yl)-2-methylacryloyl)-4-hydroxy-2-oxo-2H-pyran-6-yl)hex-1-enylcarbamate], for which the MIC came out at 3 µg/mL in [1]; 30 µg/mL in [2]; 0.8 µg/mL in the test with Brucella melitensis 16M; 10 µg/mL in test [3]; 10 µg/mL in the test on Yersinia pestis C092; 0.3 µg/mL in test [4]. Further, the MIC in [6] stood at 10 µg/mL; in [9], 30 µg/mL; in test [10] it was 4 µg/mL; in the test with Burkholderia mallei CHN7, 3 µg/mL. Moreover, the 50% inhibitory concentration (IC50) in [5] amounted to 500 nM; in [7], 90 nM; in test [8], 40 nM.

Take `COC(=O)N/C=C/CCC(C)c1cc(O)c(C(=O)C(C)=Cc2ccc(CCC(C)C)s2)c(=O)o1` (mixture of isomers) [APY31, methyl (E)-5-(4-hydroxy-3-((E/Z)-3-(5-isopentylthiophen-2-yl)-2-methylacryloyl)-2-oxo-2H-pyran-6-yl)hex-1-enylcarbamate]: the MIC in test [1] is 0.4 µg/mL; in test [2] it was 3 µg/mL; with Brucella melitensis 16M, 0.8 µg/mL; in [3] it was 6 µg/mL; in the test with Yersinia pestis C092, 10 µg/mL; in test [4], less than 0.3 µg/mL. Besides, the MIC in [6] amounted to 6 µg/mL; in test [9], 6 µg/mL; in test [10], 0.4 µg/mL; in the test on Burkholderia mallei CHN7 it was 2 µg/mL. The 50% inhibitory concentration (IC50) worked out at 20 nM in test [5], 50 nM in test [7] and 10 nM in [8].

Take `COC(=O)N/C=C/CCC(C)c1cc(O)c(C(=O)C(C)=Cc2ccc(CCCC3CCCCC3)s2)c(=O)o1` (mixture of isomers) [APY32, methyl (E)-5-(3-((E/Z)-3-(5-(3-cyclohexylpropyl)thiophen-2-yl)-2-methylacryloyl)-4-hydroxy-2-oxo-2H-pyran-6-yl)hex-1-enylcarbamate]: the MIC in [1] was 2 µg/mL; in test [2] it was 6 µg/mL; with Brucella melitensis 16M it was 2 µg/mL; in test [3] it was 0.8 µg/mL; in the test with Yersinia pestis C092, greater than 50 µg/mL; in [4], 0.4 µg/mL. Also, the MIC in [6] is 6 µg/mL; in test [9], greater than 40 µg/mL; in [10], greater than 40 µg/mL; with Burkholderia mallei CHN7, 2 µg/mL. Moreover, the values for the half-inhibitory concentration (IC50) in [5], in [7] and in test [8] were 2000 nM, 6 nM and 6 nM, respectively.

`CCCCCCc1ccc(C=C(C)C(=O)c2c(O)cc(C(C)CC/C=C/NC(=O)OC)oc2=O)cc1` (mixture of isomers) [APY33, methyl (E)-5-(3-((E/Z)-3-(4-hexylphenyl)-2-methylacryloyl)-4-hydroxy-2-oxo-2H-pyran-6-yl)hex-1-enylcarbamate]: the MIC in test [1] was 2 µg/mL; in test [2], 6 µg/mL; with Brucella melitensis 16M, 0.4 µg/mL; in [3], 3 µg/mL; in the test with Yersinia pestis C092 it was 6 µg/mL; in test [4], 0.3 µg/mL. The MIC in [6] came to 6 µg/mL; in [9] it was 20 µg/mL; in test [10], 2 µg/mL; in the test with Burkholderia mallei CHN7, 2 µg/mL. The IC50 is 400 nM in test [5], 10 nM in [7] and 8 nM in test [8].

Regarding `CCCCCCc1cccc(C=C(C)C(=O)c2c(O)cc(C(C)CC/C=C/NC(=O)OC)oc2=O)c1` (mixture of isomers) [APY34, methyl (E)-5-(3-((E/Z)-3-(3-hexylphenyl)-2-methylacryloyl)-4-hydroxy-2-oxo-2H-pyran-6-yl)hex-1-enylcarbamate], the MIC in [1] was 3 µg/mL; in test [2], 30 µg/mL; with Brucella melitensis 16M, 3 µg/mL; in test [3], 6 µg/mL; with Yersinia pestis C092, greater than 50 µg/mL; in test [4], 0.3 µg/mL. Also, the MIC in [6] is 30 µg/mL; in test [9] it was 10 µg/mL; in [10] it was greater than 40 µg/mL; with Burkholderia mallei CHN7, 3 µg/mL. The half-inhibitory concentration (IC50) in test [5] came out at 3000 nM; in test [7], 50 nM; in [8], 10 nM.

For the compound `COC(=O)N/C=C/CCC(C)c1cc(O)c(C(=O)C(C)=Cc2ccc(OC(C)C)cc2)c(=O)o1` (mixture of isomers) [APY66, methyl (E)-5-(4-hydroxy-5-((E/Z)-3-(4-isopropoxyphenyl)-2-methylacryloyl)-6-oxo-6H-pyran-2-yl)hex-1-enylcarbamate], the MIC in test [11] was determined as 2 µg/mL; in test [12], 2 µg/mL; in [1] it was 10 µg/mL; in [13], 3 µg/mL; in test [2], 6 µg/mL; in the test on Brucella melitensis 16M it was 10 µg/mL. Besides, the MIC in test [3] was greater than 50 µg/mL; in test [4], 0.8 µg/mL; in test [6], greater than 50 µg/mL; in [9], greater than 40 µg/mL; in test [10], 2 µg/mL; in the test with Burkholderia mallei CHN7 it was greater than 50 µg/mL. For the same compound, in [8], the IC50 was determined as 1000 nM.

`COC(=O)N/C=C/CCC(C)c1cc(O)c(C(=O)C(C)=Cc2ccc(CCC(C)C)cc2)c(=O)o1` (mixture of isomers) [APY73, methyl (E)-5-(4-hydroxy-5-((E/Z)-3-(4-isopentylphenyl)-2-methylacryloyl)-6-oxo-6H-pyran-2-yl)hex-1-enylcarbamate]: the MIC turned out to be 1 µg/mL in [11]; 1 µg/mL in [12]; 2 µg/mL in test [1]; 2 µg/mL in test [13]; 3 µg/mL in the test on Brucella melitensis 16M; 10 µg/mL in test [3]. Besides, the MIC was 0.3 µg/mL in test [4]; 50 µg/mL in [6]; greater than 40 µg/mL in [9]; 0.6 µg/mL in [10]; 50 µg/mL in the test on Burkholderia mallei CHN7. For the same compound, in [8], the IC50 stood at 40 nM.
